Like-named read-outs stand apart in the source and are kept apart here.
Columns and labels:
E. coli ATCC 25922 = format: cell-based, Escherichia coli; settings: ATCC 25922, 18 h
Method: (§1) The in vitro antibacterial activity of the UTBLPs was assessed against wild-type and clinically isolated bacterial strains. To obtain the MIC of the compounds, the microbroth dilution susceptibility assay was performed according to the Clinical and Laboratory Standards Institute (CLSI, Wayne, PA, USA) guidelines and as previously described. Briefly, the compounds at varying concentrations were incubated with bacterial inoculum (5 × 10^5 CFU/mL final concentration) at 37 °C for 18 h. Growth in the form of turbidity was confirmed using an EMax Plus microplate reader (Molecular Devices, San Jose, CA, USA) at 590 nm.

MRSA ATCC 33592 = format: cell-based, Staphylococcus aureus; settings: ATCC 33592, 18 h
Method: as §1

S. aureus ATCC 29213 = format: cell-based, Staphylococcus aureus; settings: ATCC 29213, 18 h
Method: as §1

E. faecalis ATCC 29212 = format: cell-based, Enterococcus faecalis; settings: ATCC 29212, 18 h
Method: as §1

E. coli 94393 = assay: microbe, parasite or virus in culture; format: cell-based, Escherichia coli; settings: 94393, 18 h
Summary of the method: (§2)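 Minimum inhibitory concentration came from a CLSI broth dilution assay: 18 h at 37 °C, inoculum 5 × 10^5 CFU/mL final.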

E. coli 94474 = assay: microbe, parasite or virus in culture; format: cell-based, Escherichia coli; settings: 94474, 18 h
Summary of the method: as §2

[1] = tested on: P. aeruginosa PA259-96196; format: cell-based, Pseudomonas aeruginosa; settings: for MICUTBLP: UTBLP alone
Summary of the method: (§3)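 Checkerboard synergy assay: antibiotic and OMP combined at varying concentrations with 5 × 10^5 CFU/mL inoculum (final), 37 °C, 18 h; growth read as turbidity at 590 nm. FICI = sum of FICs (MIC in combination / MIC alone); ≤0.5 synergistic, 0.5–4 additive, >4 antagonistic.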

P. aeruginosa PAO1 = format: cell-based, Pseudomonas aeruginosa; settings: for MICUTBLP: UTBLP alone
Summary of the method: as §3

A. baumannii 92247 = format: cell-based, Acinetobacter baumannii; settings: for MICUTBLP: UTBLP alone
Summary of the method: as §3

A. baumannii AB027 = format: cell-based, Acinetobacter baumannii; settings: for MICUTBLP: UTBLP alone
Summary of the method: as §3

A. baumannii ATCC 17978 = format: cell-based, Acinetobacter baumannii; settings: for MICUTBLP: UTBLP alone
Summary of the method: as §3

E. cloacae 118564 = format: cell-based, Enterobacter cloacae; settings: for MICUTBLP: UTBLP alone
Summary of the method: as §3

K. pneumoniae 113250 = format: cell-based, Klebsiella pneumoniae; settings: for MICUTBLP: UTBLP alone
Summary of the method: as §3

MRSE 61589 = format: cell-based, Staphylococcus epidermidis
Summary of the method: as §3

MSSE 81388 = format: cell-based, Staphylococcus epidermidis
Summary of the method: as §3

E. faecium ATCC 27270 = format: cell-based, Enterococcus faecium
Summary of the method: as §3

[2] = UTBLP in combination with novobiocin
[3] = UTBLP in combination with rifampicin
[4] = novobiocin in combination with the UTBLP
[5] = rifampicin in combination with the UTBLP
[6] = UTBLP in combination with chloramphenicol
[7] = UTBLP in combination with niclosamide
[8] = chloramphenicol in combination with the UTBLP
[9] = niclosamide in combination with the UTBLP
[10] = UTBLP alone, plate with chloramphenicol

CCCCCCCC(=O)N[C@@H](CCCCN(C)C)C(=O)NCCCN(CCCNC(=O)[C@H](CCCCN(C)C)NC(=O)CCCCCCC)CC(=O)N[C@@H](CCCCN(C)C)C(N)=O [UTBLP 3]
MIC (E. coli ATCC 25922): >128 mg/L
MIC (MRSA ATCC 33592): >128 mg/L
MIC (S. aureus ATCC 29213): >128 mg/L
MIC (E. faecalis ATCC 29212): >128 mg/L
MIC (E. coli 94393): > 128 mg/L
MIC (E. coli 94474): > 128 mg/L
Interpretation ([1]; UTBLP + novobiocin): Additive (0.5 < x ≤ 4 is additive)
Interpretation ([1]; UTBLP + rifampicin): Additive (0.5 < x ≤ 4 is additive)
MICUTBLP ([1]; plate with novobiocin): > 128 µg/mL
MICUTBLP ([1]; plate with rifampicin): > 128 µg/mL
MICUTBLP [MICcombo] [1, 2]: 0.25 µg/mL
MICUTBLP [MICcombo] [1, 3]: 16 µg/mL
MICantibiotic [MICcombo] [1, 4]: 2048 µg/mL
MICantibiotic [MICcombo] [1, 5]: 16 µg/mL
Interpretation (P. aeruginosa PAO1; UTBLP + chloramphenicol): Additive (0.5 < x ≤ 4 is additive)
Interpretation (P. aeruginosa PAO1; UTBLP + niclosamide): Additive (0.5 < x ≤ 4 is additive)
Interpretation (P. aeruginosa PAO1; UTBLP + novobiocin): Additive (0.5 < x ≤ 4 is additive)
Interpretation (P. aeruginosa PAO1; UTBLP + rifampicin): Additive (0.5 < x ≤ 4 is additive)
MICUTBLP (P. aeruginosa PAO1; plate with chloramphenicol): > 128 µg/mL
MICUTBLP (P. aeruginosa PAO1; plate with niclosamide): > 128 µg/mL
MICUTBLP (P. aeruginosa PAO1; plate with novobiocin): > 128 µg/mL
MICUTBLP (P. aeruginosa PAO1; plate with rifampicin): > 128 µg/mL
MICUTBLP [MICcombo] (P. aeruginosa PAO1; [6]): 8 µg/mL
MICUTBLP [MICcombo] (P. aeruginosa PAO1; [7]): 0.25 µg/mL
MICUTBLP [MICcombo] (P. aeruginosa PAO1; [2]): 16 µg/mL
MICUTBLP [MICcombo] (P. aeruginosa PAO1; [3]): 0.25 µg/mL
MICantibiotic [MICcombo] (P. aeruginosa PAO1; [8]): 8 µg/mL
MICantibiotic [MICcombo] (P. aeruginosa PAO1; [9]): 1024 µg/mL
MICantibiotic [MICcombo] (P. aeruginosa PAO1; [4]): 512 µg/mL
MICantibiotic [MICcombo] (P. aeruginosa PAO1; [5]): 16 µg/mL
Interpretation (A. baumannii 92247; UTBLP + novobiocin): Synergy (FICI ≤ 0.5 is synergistic)
Interpretation (A. baumannii 92247; UTBLP + rifampicin): Synergy (FICI ≤ 0.5 is synergistic)
MICUTBLP (A. baumannii 92247; plate with novobiocin): > 128 µg/mL
MICUTBLP (A. baumannii 92247; plate with rifampicin): > 128 µg/mL
MICUTBLP [MICcombo] (A. baumannii 92247; [2]): 8 µg/mL
MICUTBLP [MICcombo] (A. baumannii 92247; [3]): 16 µg/mL
MICantibiotic [MICcombo] (A. baumannii 92247; [4]): 1 µg/mL
MICantibiotic [MICcombo] (A. baumannii 92247; [5]): 0.25 µg/mL
Interpretation (A. baumannii AB027; UTBLP + novobiocin): Synergy (FICI ≤ 0.5 is synergistic)
Interpretation (A. baumannii AB027; UTBLP + rifampicin): Additive (0.5 < x ≤ 4 is additive)
MICUTBLP (A. baumannii AB027; plate with novobiocin): > 128 µg/mL
MICUTBLP (A. baumannii AB027; plate with rifampicin): > 128 µg/mL
MICUTBLP [MICcombo] (A. baumannii AB027; [2]): 16 µg/mL
MICUTBLP [MICcombo] (A. baumannii AB027; [3]): 4 µg/mL
MICantibiotic [MICcombo] (A. baumannii AB027; [4]): 2 µg/mL
MICantibiotic [MICcombo] (A. baumannii AB027; [5]): 0.5 µg/mL
Interpretation (A. baumannii ATCC 17978; UTBLP + chloramphenicol): Additive (0.5 < x ≤ 4 is additive)
Interpretation (A. baumannii ATCC 17978; UTBLP + niclosamide): Additive (0.5 < x ≤ 4 is additive)
Interpretation (A. baumannii ATCC 17978; UTBLP + novobiocin): Synergy (FICI ≤ 0.5 is synergistic)
Interpretation (A. baumannii ATCC 17978; UTBLP + rifampicin): Synergy (FICI ≤ 0.5 is synergistic)
MICUTBLP (A. baumannii ATCC 17978; plate with chloramphenicol): > 128 µg/mL
MICUTBLP (A. baumannii ATCC 17978; plate with niclosamide): > 128 µg/mL
MICUTBLP (A. baumannii ATCC 17978; plate with novobiocin): > 128 µg/mL
MICUTBLP (A. baumannii ATCC 17978; plate with rifampicin): > 128 µg/mL
MICUTBLP [MICcombo] (A. baumannii ATCC 17978; [6]): 16 µg/mL
MICUTBLP [MICcombo] (A. baumannii ATCC 17978; [7]): 0.25 µg/mL
MICUTBLP [MICcombo] (A. baumannii ATCC 17978; [2]): 8 µg/mL
MICUTBLP [MICcombo] (A. baumannii ATCC 17978; [3]): 8 µg/mL
MICantibiotic [MICcombo] (A. baumannii ATCC 17978; [8]): 64 µg/mL
MICantibiotic [MICcombo] (A. baumannii ATCC 17978; [9]): 1024 µg/mL
MICantibiotic [MICcombo] (A. baumannii ATCC 17978; [4]): 1 µg/mL
MICantibiotic [MICcombo] (A. baumannii ATCC 17978; [5]): 0.5 µg/mL
Interpretation (E. cloacae 118564; UTBLP + novobiocin): Synergy (FICI ≤ 0.5 is synergistic)
Interpretation (E. cloacae 118564; UTBLP + rifampicin): Synergy (FICI ≤ 0.5 is synergistic)
MICUTBLP (E. cloacae 118564; plate with novobiocin): > 128 µg/mL
MICUTBLP (E. cloacae 118564; plate with rifampicin): > 128 µg/mL
MICUTBLP [MICcombo] (E. cloacae 118564; [2]): 16 µg/mL
MICUTBLP [MICcombo] (E. cloacae 118564; [3]): 8 µg/mL
MICantibiotic [MICcombo] (E. cloacae 118564; [4]): 16 µg/mL
MICantibiotic [MICcombo] (E. cloacae 118564; [5]): 2 µg/mL
Interpretation (K. pneumoniae 113250; UTBLP + novobiocin): Synergy (FICI ≤ 0.5 is synergistic)
Interpretation (K. pneumoniae 113250; UTBLP + rifampicin): Synergy (FICI ≤ 0.5 is synergistic)
MICUTBLP (K. pneumoniae 113250; plate with novobiocin): > 128 µg/mL
MICUTBLP (K. pneumoniae 113250; plate with rifampicin): > 128 µg/mL
MICUTBLP [MICcombo] (K. pneumoniae 113250; [2]): 16 µg/mL
MICUTBLP [MICcombo] (K. pneumoniae 113250; [3]): 16 µg/mL
MICantibiotic [MICcombo] (K. pneumoniae 113250; [4]): 32 µg/mL
MICantibiotic [MICcombo] (K. pneumoniae 113250; [5]): 4 µg/mL
Interpretation (MRSE 61589; UTBLP + chloramphenicol): Additive (0.5 < x ≤ 4 is additive)
MICUTBLP (MRSE 61589; [10]): > 128 µg/mL
MICUTBLP [MICcombo] (MRSE 61589; [6]): 0.25 µg/mL
MICchloramphenicol [MICcombo] (MRSE 61589; [8]): 16 µg/mL
Interpretation (MSSE 81388; UTBLP + chloramphenicol): Additive (0.5 < x ≤ 4 is additive)
MICUTBLP (MSSE 81388; [10]): > 128 µg/mL
MICUTBLP [MICcombo] (MSSE 81388; [6]): 0.25 µg/mL
MICchloramphenicol [MICcombo] (MSSE 81388; [8]): 8 µg/mL
Interpretation (E. faecium ATCC 27270; UTBLP + chloramphenicol): Additive (0.5 < x ≤ 4 is additive)
MICUTBLP (E. faecium ATCC 27270; [10]): > 128 µg/mL
MICUTBLP [MICcombo] (E. faecium ATCC 27270; [6]): 0.25 µg/mL
MICchloramphenicol [MICcombo] (E. faecium ATCC 27270; [8]): 8 µg/mL

Source: article PMC8963254, “Effects of Lysine N-ζ-Methylation in Ultrashort Tetrabasic Lipopeptides (UTBLPs) on the Potentiation of Rifampicin, Novobiocin, and Niclosamide in Gram-Negative Bacteria” (Antibiotics, 2022)
